{"source": "paper PMC3783636", "about": "(ACS chemical biology, 2013)", "key": {"[1]": {"details": "known Zn(II) affinity; ref Supporting Information; cited from earlier work"}, "trypsin": {"system": "trypsin", "details": "oxidized, triple-stranded β-sheet fold; cited from earlier work"}, "[2]": {"test": "Midpoint potential determination in DTT redox buffers", "details": "pH 7.0, 75 mM HEPES, DTTred/DTTox redox buffers −230 to −290 mV, 25 µM HD5red or HD5ox, anaerobic, 20 h, rt (ca. 22 °C), HPLC peak areas, global fit"}}}
{"molecule": "O=C(O)c1ccccc1NN=C(N=Nc1cc(S(=O)(=O)O)ccc1O)c1ccccc1", "note": "[Zincon]", "values": [{"measurement": "Kd for Zn(II) of the sensor (range in words)", "setting": "[1]", "result": "micromolar"}]}
{"molecule": "FluoZin-1 [FZ1]", "values": [{"measurement": "Kd for Zn(II) of the sensor (range in words)", "setting": "[1]", "result": "micromolar"}]}
{"molecule": "Zinpyr-4 [ZP4]", "values": [{"measurement": "Kd for Zn(II) of the sensor (range in words)", "setting": "[1]", "result": "mid-picomolar"}]}
{"molecule": "HD5ox: oxidized form of HD5 with three disulfide bonds (peptide, UniProt Q01523 20-94, looked up, Defensin-5 oxidized, three disulfides) Defensin alpha 5: ESLQERADEATTQKQSGEDNQDLAISFAGNGLSALRTSGSQARATCYCRTGRCATRESLSGVCEISGRLYRLCCR", "values": [{"measurement": "stability to trypsin", "setting": "trypsin", "result": "resistant to degradation"}]}
{"molecule": "HD5: 32-residue cysteine-rich host-defense peptide; the redox couple HD5ox/HD5red (peptide, UniProt Q01523 20-94, looked up, Defensin-5) Defensin alpha 5: ESLQERADEATTQKQSGEDNQDLAISFAGNGLSALRTSGSQARATCYCRTGRCATRESLSGVCEISGRLYRLCCR", "values": [{"measurement": "midpoint potential", "setting": "[2]", "result": "−257", "unit": "mV"}]}
